Measurements as given in article PMC12198407, “Preclinical and first-in-human of purinostat mesylate, a novel selective HDAC I/IIb inhibitor, in relapsed/refractory multiple myeloma and lymphoma” (Signal Transduction and Targeted Therapy, 2025).
“And” between values parts separate entries of the source, which are not always exact repeats. Identical values can stand only once.

Tests used:
[1] = human, in vivo
[2] = test system: serum cytokines and T cells in PB; assay: Phase I trial, serum cytokines and PB T cells in responders; format: in vivo, human; settings: after 1 week
[3] = Safety pharmacology, ECG and blood pressure; format: in vivo, Beagle dogs; settings: 3.6 mg/kg i.v.
Experimental: In the 1.2 and 3.6 mg/kg groups, transient increases in heart rate were observed, and in the 3.6 mg/kg group, a transient and reversible prolongation of QT interval (9.6%) was also noted. Additionally, there were no significant effects observed on other qualitative and quantitative ECG parameters or blood pressure in the dogs. […] In the 90 mg/kg group, reduced locomotor activity and decreased standing frequency were also observed, but these effects returned to baseline after 24 hours. No significant effects were noted on other neurological behaviors in rats, and no impacts on the respiratory system were observed.

[4] = target: HDAC10 (Homo sapiens, UniProt Q969S8); assay: HDAC enzyme activity in vitro; format: biochemical
[5] = test system: Ramos; assay: Cell viability CCK8; format: cell-based; settings: Homo sapiens, 72 h, no unit in table, read-out: Antiproliferative activity IC50
Experimental: (§1) PM, panobinostat, Pom and DXM were dissolved in DMSO and stored at -20°C freezer. Cells were seeded at a density of 1.0-3.0 × 10^4 cells/well/100 μL in 96-well plates. After overnight incubation, cells were treated with the drug-containing culture medium for 24, 48, or 72 hours, and cell viability was measured using CCK8 (Oriscience, Chengdu, China) at the indicated time points with Biotek Cytation 3 at a wavelength of 450 nm. The IC50 values were calculated using GraphPad Prism 9.4.1, and Calcusyn 2.0 software was employed to calculate the CI values.

[6] = test system: NKYS; assay: Cell viability CCK8; format: cell-based; settings: Homo sapiens, 72 h, no unit in table, read-out: Antiproliferative activity IC50
Experimental: as §1

[7] = test system: RPMI-8226R; assay: Cell viability CCK8; format: cell-based; settings: Homo sapiens, 72 h, no unit in table, read-out: Antiproliferative activity IC50
Experimental: as §1

[8] = test system: RL; assay: Cell viability CCK8; format: cell-based; settings: Homo sapiens, 72 h, no unit in table, read-out: Antiproliferative activity IC50
Experimental: as §1

[9] = test system: RPMI-8226; assay: Cell viability CCK8; format: cell-based; settings: Homo sapiens; RPMI-8226, 72 h; no unit in table; read-out: Antiproliferative activity IC50
Experimental: as §1

[10] = test system: TMD-8; assay: Cell viability CCK8; format: cell-based; settings: Homo sapiens, TMD8; TMD-8, 72 h; no unit in table; read-out: Antiproliferative activity IC50
Experimental: as §1

[11] = target: human ether-à-go-go-related gene (hERG) channel (Homo sapiens, UniProt Q12809); assay: hERG inhibition; format: biochemical
[12] = test system: r/r MM and r/r lymphoma; assay: Phase I trial NCT05526313, efficacy assessment; format: in vivo, human
Experimental: This open-label, non-randomized, first-in-human phase I dose-escalation two-center trial enrolled adult patients with lymphoma or MM who were refractory or relapsed after ≥1 prior regimen (NCT05526313). All patients provided written informed consent, and the study was conducted in accordance with the principles of the Declaration of Helsinki. PM was administered by 30-min intravenous infusion in a standard 3 + 3 dose escalation design, starting from 1.2, 2.4, 4.0, 6.0, 8.4, 11.2, up to 15 mg/m^2. This trial was conducted in three sequential stages as follows: the first stage as a single dose (day 1), the second stage as multiple doses (day 8, 11, and 15), and the third stage as extended doses (day 1, 4, 8, 11 in 21-day cycles). The decision to proceed to the third stage is based on the patient’s continued benefit from the previous two stages. Patients continued to receive PM until unacceptable toxicity or disease progression. Between August 2020 and August 2022, 11 r/r MM and 18 r/r lymphoma patients were enrolled. The cutoff date for the assessment of safety and efficacy was July 7, 2023. The incidence and severity of adverse events were assessed according to the National Cancer Institute Common Terminology Criteria for Adverse Events (CTCAE 5.0). The efficacy of PM in patients with r/r MM was evaluated according to the standards of the Chinese Multiple Myeloma Diagnosis and Treatment Guidelines (2017 Revised) and the 2016 International Myeloma Working Group (IMWG). Minimal response (MR) (only for the evaluation of r/r MM): serum M protein decreased by 25–49% and 24 h light chain decreased by 50–89%. If soft tissue plasmacytoma exists at baseline, the sum of the product of perpendicular diameters (SPD) of measurable lesions is required to be reduced by ≥50%.[56],[57] The number and size of osteolytic lesions have not increased (compression fractures are allowed). […] Detailed methods for pharmacodynamic studies, safety and tolerability assessments (including the definition of DLT and maximum tolerated dose), and efficacy assessment are provided in Supplementary Methods.
Disease response of patients was measured according to the Chinese Multiple Myeloma Diagnosis and Treatment Guidelines (2017 Revised) and the 2016 International Myeloma Working Group (IMWG) for multiple myeloma or the International Working Group consensus response evaluation criteria in lymphoma (RECIL 2017). Patients need to be evaluated for efficacy after completing the cycle 1 of PM treatment (single and multiple dosing phases, day 25) and every 2 treatment cycles during the extended dosing phase. For r/r multiple myeloma, the efficacy was evaluated by quantification of M protein immunofixation electrophoresis of serum and urine. For r/r lymphoma, if sites with available positron emission tomography (PET) imaging, tumor volume was quantified by PET computed tomography (CT), and if sites where PET was not available, CT or magnetic resonance imaging was used. Objective response rate (ORR)=CR+PR+MR, and disease control rate (DCR)=CR+PR+MR+SD, and calculate their 95% confidence interval using the Clopper-Pearson method. The efficacy assessable population was determined to include all patients who were administered at least one dose of PM and had undergone at least one tumor assessment after the baseline.

[13] = target: T1, CYP2C9 (Homo sapiens, UniProt P11712); assay: CYP inhibition, human liver microsomes; format: in vitro ADME
T1 construct: human liver microsomal cytochrome P450 isoenzymes; from tissue; host or cells: human liver microsomes

[14] = by row: r4 MM, r5 DLBCL, r6 FL, r7 other lymphomas, r8 total

Chain of human ether-à-go-go-related gene (hERG) channel (Q12809 whole entry): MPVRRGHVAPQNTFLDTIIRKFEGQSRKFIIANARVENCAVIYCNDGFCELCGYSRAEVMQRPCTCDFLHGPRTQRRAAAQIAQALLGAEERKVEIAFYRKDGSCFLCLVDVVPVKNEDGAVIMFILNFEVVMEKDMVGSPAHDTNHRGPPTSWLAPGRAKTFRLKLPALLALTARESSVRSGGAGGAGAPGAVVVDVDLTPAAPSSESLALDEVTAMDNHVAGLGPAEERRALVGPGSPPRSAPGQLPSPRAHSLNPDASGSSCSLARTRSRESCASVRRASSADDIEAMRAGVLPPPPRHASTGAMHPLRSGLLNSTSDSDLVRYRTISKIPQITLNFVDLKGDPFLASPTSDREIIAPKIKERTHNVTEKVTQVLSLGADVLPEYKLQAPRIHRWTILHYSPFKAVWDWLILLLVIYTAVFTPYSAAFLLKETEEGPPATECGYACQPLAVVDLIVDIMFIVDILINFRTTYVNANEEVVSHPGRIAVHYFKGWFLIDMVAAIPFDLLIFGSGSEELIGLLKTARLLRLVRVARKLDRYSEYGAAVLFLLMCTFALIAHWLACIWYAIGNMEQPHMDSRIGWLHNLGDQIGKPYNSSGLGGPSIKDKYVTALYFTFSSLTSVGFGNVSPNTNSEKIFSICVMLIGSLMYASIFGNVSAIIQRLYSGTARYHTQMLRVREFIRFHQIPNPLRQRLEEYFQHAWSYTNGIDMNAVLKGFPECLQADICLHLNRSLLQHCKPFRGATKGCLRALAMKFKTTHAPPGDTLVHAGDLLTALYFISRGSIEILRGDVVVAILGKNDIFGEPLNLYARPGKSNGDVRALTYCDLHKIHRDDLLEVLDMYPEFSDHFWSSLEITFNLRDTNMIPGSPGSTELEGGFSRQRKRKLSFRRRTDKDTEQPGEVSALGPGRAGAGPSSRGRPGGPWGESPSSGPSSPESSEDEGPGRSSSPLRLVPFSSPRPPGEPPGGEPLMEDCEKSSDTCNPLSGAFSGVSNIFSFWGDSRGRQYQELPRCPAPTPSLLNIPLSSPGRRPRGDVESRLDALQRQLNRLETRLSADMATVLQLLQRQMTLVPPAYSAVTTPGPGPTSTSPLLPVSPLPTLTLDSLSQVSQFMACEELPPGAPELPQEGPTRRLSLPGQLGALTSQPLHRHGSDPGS
T1 sequence (P11712 whole entry): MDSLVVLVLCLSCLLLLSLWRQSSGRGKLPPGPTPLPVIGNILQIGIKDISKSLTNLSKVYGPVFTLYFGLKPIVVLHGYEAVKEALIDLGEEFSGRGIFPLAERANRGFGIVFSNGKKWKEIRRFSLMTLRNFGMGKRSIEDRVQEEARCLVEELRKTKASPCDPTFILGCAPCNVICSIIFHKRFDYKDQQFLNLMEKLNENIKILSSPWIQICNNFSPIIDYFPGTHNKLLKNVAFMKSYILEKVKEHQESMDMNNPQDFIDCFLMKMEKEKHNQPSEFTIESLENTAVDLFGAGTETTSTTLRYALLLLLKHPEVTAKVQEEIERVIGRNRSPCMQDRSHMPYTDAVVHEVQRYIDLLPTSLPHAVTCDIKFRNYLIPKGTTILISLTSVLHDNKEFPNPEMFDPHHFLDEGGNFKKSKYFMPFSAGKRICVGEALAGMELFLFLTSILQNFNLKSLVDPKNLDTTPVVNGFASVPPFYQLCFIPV
Chain of HDAC10 (Q969S8 whole entry): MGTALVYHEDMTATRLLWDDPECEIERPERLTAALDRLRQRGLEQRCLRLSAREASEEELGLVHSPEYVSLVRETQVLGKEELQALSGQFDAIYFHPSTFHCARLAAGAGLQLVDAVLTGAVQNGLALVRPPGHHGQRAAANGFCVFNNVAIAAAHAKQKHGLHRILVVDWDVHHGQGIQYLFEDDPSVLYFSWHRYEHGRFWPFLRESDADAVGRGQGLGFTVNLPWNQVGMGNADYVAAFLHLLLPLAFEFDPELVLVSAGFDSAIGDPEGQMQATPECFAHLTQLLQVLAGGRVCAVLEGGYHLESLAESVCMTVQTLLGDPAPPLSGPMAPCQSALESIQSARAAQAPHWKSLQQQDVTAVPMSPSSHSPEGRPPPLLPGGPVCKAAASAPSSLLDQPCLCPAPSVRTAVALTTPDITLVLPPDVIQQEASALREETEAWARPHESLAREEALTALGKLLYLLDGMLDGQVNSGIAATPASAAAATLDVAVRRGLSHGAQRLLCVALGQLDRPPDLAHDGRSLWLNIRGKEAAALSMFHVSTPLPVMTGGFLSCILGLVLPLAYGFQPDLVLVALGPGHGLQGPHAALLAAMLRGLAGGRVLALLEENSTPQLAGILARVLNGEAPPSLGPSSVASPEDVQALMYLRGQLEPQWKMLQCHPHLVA

With `CN(Cc1nc2c(N3CCOCC3)nc(-c3ccc(N)cc3)nc2n1C)c1ncc(C(=O)NO)cn1.CS(=O)(=O)O` [PM, 2-(((2-(4-Aminophenyl)-9-methyl-6-(4-morpholinyl)-9H-purine-8-yl)methyl)methylamino)-N-hydroxy-5-pyrimidine-carboxamide Mesylate] the “QT interval prolongation on ECG” value [1] was 10(34.5) n (%), the “cardiac toxic adverse events” value [1] was “no grade 3 or higher events occurring” and the “transient QTc interval prolongation, grade” value [1] was no more than 2 grade. For the same compound, the “proportion of CD3+CD4+ T cells in PB” value ([2]; before 4.12%) was 6.49%, the “proportion of CD3+CD8+ T cells in PB” value ([2]; before 4.30%) was 9.56% and the “proportion of CD3+ T cells in PB” value ([2]; before 8.42%) was 16.05%. For the same compound, the “prolongation of QT interval, transient and reversible” value [3] was 9.6%, the IC50 [4] was 1.1 nM and the IC50 [5] was 1.24 ± 0.47 nM. It also gave an IC50 [6] of 0.77 ± 0.07 nM, an IC50 [7] of 2.02 ± 0.3 nM and an IC50 [8] of 1.27 ± 0.14 nM. It also gave an IC50 [9] of 2.42 ± 0.4 nM, an IC50 [10] of 0.99 ± 0.14 nM and an IC50 [11] greater than 100000 nM. The DCR ([12]; DLBCL, n=11) was 72.7%, the “duration of PR” value ([12]; FL patient with multiple extranodal lesions) was “more than 10 cycles” and the DCR ([12]; FL, n=3) was 66.7%. The ORR ([12]; FL, n=3) was 66.7%, the “duration of MR” value ([12]; Patient No.10, 6.0 mg/m²) was “more than 6 months” and the “M-protein after 2 cycles” value ([12]; Patient No.10, 6.0 mg/m², baseline 26.290 g/L) was 15.998 g/L. For the same compound, the “Best Response CR” value [12, 14] was 6(54.5) n (%) and 6(20.7) n (%), the “Best Response MR” value [12, 14] was 1(33.3) n (%) and the “Best Response PD” value [12, 14] was 1(33.3) n (%). For the same compound, the “Best Response PR” value [12, 14] was 1(33.3) n (%), the “Best Response SD” value [12, 14] was 10(34.5) n (%) and the DCR ([12]; other lymphomas, n=4) was 100%. For the same compound, the ORR ([12]; other lymphomas, n=4) was 50.0%, the “duration of CR” value ([12]; r/r DEL DLBCL patient with MYD88 mutation) was “over 18 months” and the “duration of CR” value ([12]; r/r DEL patient No.26) was “more than 1.5 years”. For the same compound, the “Response (%): CR” value ([12]; r/r DLBCL) was 54.5%, the ORR ([12]; r/r DLBCL, n=11) was 63.6% and the “number of complete responses” value ([12]; r/r DLBCL, n=11) was 6. For the same compound, the “number of partial responses” value ([12]; r/r DLBCL, n=11) was 1, the DCR ([12]; r/r MM, n=11) was 72.7% and the ORR ([12]; r/r MM, n=11, 1.2–8.4 mg/m^2) was 9.1% and 9.09%. It also gave an ORR ([12]; r/r lymphoma, n=18, 4.0–15.0 mg/m^2) of 61.1%, a DCR ([12]; total, n=29) of 75.9% and an ORR ([12]; total, n=29) of 41.4%. The IC50 [13] was greater than 10000 nM.
